Measured values as given in ChEMBL document CHEMBL5053513, “Discovery of bilirubin as novel P2X7R antagonist with anti-tumor activity” (Bioorg Med Chem Lett, 2021).
Activity calls are given as the source filed them. The calls are words filed in the database; no cut-off is given here.

Key:
[1] = biological target: T1, P2X purinoceptor 7 (Homo sapiens) (UniProt Q99572); assay: Antagonist activity at human P2X7R expressed in human HT-29 cells assessed as reduction in ethidium bromide uptake at 100 uM in presence of BzATP; assay type: cell-based; conditions: filed as antagonist
T1 sequence (whole entry): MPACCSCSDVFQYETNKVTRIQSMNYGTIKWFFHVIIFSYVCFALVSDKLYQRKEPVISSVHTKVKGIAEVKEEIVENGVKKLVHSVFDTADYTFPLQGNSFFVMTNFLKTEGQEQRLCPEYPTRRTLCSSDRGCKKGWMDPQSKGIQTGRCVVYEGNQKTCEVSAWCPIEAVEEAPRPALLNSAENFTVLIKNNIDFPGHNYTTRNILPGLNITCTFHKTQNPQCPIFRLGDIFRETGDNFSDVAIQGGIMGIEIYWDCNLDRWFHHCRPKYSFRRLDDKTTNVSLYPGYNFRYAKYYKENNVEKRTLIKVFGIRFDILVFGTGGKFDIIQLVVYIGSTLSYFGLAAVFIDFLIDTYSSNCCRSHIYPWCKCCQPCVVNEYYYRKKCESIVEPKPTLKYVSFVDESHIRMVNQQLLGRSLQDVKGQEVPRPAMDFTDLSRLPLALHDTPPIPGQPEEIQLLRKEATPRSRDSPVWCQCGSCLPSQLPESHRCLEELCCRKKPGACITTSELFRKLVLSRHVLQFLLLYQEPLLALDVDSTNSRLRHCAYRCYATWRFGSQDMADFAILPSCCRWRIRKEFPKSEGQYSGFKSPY

[2] = tested on: HT-29; assay: Cytotoxicity against human HT-29 cells assessed as cell growth inhibition at 50 uM after 24 hrs by MTT assay; assay type: functional, cell-based
[3] = biological target: T2, P2X purinoceptor 7 (Mus musculus) (UniProt Q9Z1M0); assay: Antagonist activity at mouse P2X7R expressed in mouse CT26 cells assessed as reduction in ethidium bromide uptake by cells at 100 uM in presence of BzATP; assay type: cell-based
T2 sequence (whole entry): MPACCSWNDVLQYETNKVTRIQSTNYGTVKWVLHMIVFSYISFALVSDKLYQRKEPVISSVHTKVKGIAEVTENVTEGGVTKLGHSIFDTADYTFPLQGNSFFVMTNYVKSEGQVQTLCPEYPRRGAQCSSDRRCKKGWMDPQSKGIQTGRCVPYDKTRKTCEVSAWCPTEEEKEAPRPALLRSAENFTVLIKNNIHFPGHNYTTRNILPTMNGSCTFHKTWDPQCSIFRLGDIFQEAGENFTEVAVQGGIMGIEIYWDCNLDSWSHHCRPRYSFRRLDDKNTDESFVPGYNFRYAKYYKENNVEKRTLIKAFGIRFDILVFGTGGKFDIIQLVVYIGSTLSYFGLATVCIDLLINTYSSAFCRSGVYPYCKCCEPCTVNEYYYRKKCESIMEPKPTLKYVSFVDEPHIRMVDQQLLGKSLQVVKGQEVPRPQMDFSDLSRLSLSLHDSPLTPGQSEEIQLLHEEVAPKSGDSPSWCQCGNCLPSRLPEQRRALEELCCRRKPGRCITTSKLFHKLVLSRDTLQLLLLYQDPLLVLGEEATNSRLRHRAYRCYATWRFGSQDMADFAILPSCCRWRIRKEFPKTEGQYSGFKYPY

[4] = tested on: RKO; assay: Cytotoxicity against human RKO cells assessed as cell growth inhibition at 50 uM after 24 to 72 hrs by MTT assay; assay type: functional, cell-based; conditions: time 24-72 hrs
[5] = tested on: HT-29; assay: Cytotoxicity against human HT-29 cells assessed as cell growth inhibition at 50 uM after 48 to 72 hrs by MTT assay; assay type: functional, cell-based; conditions: time 48-72 hrs
[6] = biological target: T1, P2X purinoceptor 7 (Homo sapiens); assay: Antagonist activity at human P2X7R expressed in human RKO cells assessed as reduction in ethidium bromide uptake at 100 uM in presence of BzATP; assay type: cell-based
[7] = tested on: HUVEC; assay: Cytotoxicity against HUVEC cells assessed as reduction in cell growth inhibition at 50 uM measured after 24 to 72 hrs by MTT assay; assay type: cell-based; conditions: human, time 24-72 hrs
[8] = tested on: HT-29; assay: Antimigratory activity against human HT-29 cells assessed as reversal of BzATP induced cell migration at 50 uM; assay type: functional, cell-based

SMILES | Activity [1] | Activity [2] | Activity [3] | Activity [4] | Activity [5] | Activity [6] | Activity [7] | Activity [8]
COc1ccc(CC(=O)NC(N/C(=N/C#N)Nc2cccc3ncccc23)C(C)(C)C)cc1OC (stereo not drawn) | Active | inactive | inactive | inactive | Active | inactive | – | –
CCOc1ccc(-n2c(=O)[nH]c3c(C(N)=O)nc(-c4cc(F)ccc4F)nc32)cc1 | Active | Active | – | inactive | Active | inactive | Toxic | Active
